Measured values: PMC8151276, “An Integrated Approach toward NanoBRET Tracers for Analysis of GPCR Ligand Engagement” (Molecules, 2021)

Legend:
Format in all cases: binding
ADORA1 = molecular target: T1, ADORA1 (Homo sapiens, UniProt P30542); assay: NanoBRET screen HiBiT-ADORA1 in HEK293
T1 construct: purchased Promega (in-house HiBiT-GPCR construct library, NanoBRET)
T1 sequence (P30542 1-326): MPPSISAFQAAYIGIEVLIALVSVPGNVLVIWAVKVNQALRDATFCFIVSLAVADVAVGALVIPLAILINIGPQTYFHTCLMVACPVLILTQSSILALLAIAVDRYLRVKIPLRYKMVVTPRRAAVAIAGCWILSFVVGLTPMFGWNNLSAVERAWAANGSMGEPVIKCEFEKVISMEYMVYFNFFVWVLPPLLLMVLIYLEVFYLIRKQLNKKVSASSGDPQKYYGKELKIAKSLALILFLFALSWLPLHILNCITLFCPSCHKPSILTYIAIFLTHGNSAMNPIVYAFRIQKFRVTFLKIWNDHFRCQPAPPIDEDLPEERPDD
Procedure: (§1) Each tracer candidate was screened across the entire library of HiBiT-GPCR constructs using NanoBRET as the detection modality. As depicted in Figure 4A, the specificity of interactions was evaluated through decrease in BRET due to competitive displacement of a bound tracer by excess parental compound. Each tracer was analyzed for binding to each HiBiT-GPCR fusion in the absence and in the presence of competing parental compound. Briefly, HEK293 cells were transfected with HiBiT-GPCR constructs diluted into promoterless DNA to reduce expression and maximize translocation to the cell surface. Each tracer candidate was then screened at concentrations of 1 μM and 0.1 μM across cells expressing these fusions. Cells were treated for 1.5 h with tracer either alone or in the presence of 20 μM competing parental compound (i.e., control). BRET was measured upon addition of purified LgBiT and subsequent complementation with HiBiT genetically fused to a GPCR. The specificity of interactions was assessed through a decrease in BRET signal due to competitive displacement of the bound tracer. To further gauge the robustness of these interactions, the fold response over the control (i.e., BRETtracer/BRETcontrol) was calculated. We chose a 1.5-fold response, which translates to ≥7-fold signal over noise as the minimal threshold required to score an interaction as positive. […]. Below we highlight the screening results obtained for our exemplary fluorescent tracers based on Clozapine, Amitriptyline and AZD1283.
(§2) HiBiT-GPCR DNA constructs were diluted in 10 mM Tris pH 8 to a final concentration of 0.01 μg/μL, arrayed in 96-well plates and stored at −20 °C. For transfection, HEK293 cells were suspended in Opti-MEM (without phenol red) supplemented with 2% fetal bovine serum (Seradigm) and 100 units/mL penicillin–streptomycin (Gibco) at a final concentration of 220,000 cells/mL and dispensed into white 96-well plates at 90 μL/well. Subsequent transfections and screens were carried using an Agilent Bravo Automated Liquid Handling Platform. First, the 96-well HiBiT DNA arrays were diluted 25-fold in Opti-MEM (without serum or phenol red) to a final concentration of 0.0004 μg/μL and 20 μL of the diluted DNAs were transferred into new 96-well plates. Next, promoterless carrier DNA (1 μg/μL) was diluted 25-fold (0.04 μg/μL) and then dispensed into the diluted arrays at 20 μL/well. Following brief mixing, Viafect transfection reagent (Promega) diluted 16-fold into Opti-MEM was dispensed into the plates at 40 μL/well. After mixing by pipetting, plates were incubated for 10 min on the pipetting station deck. The DNA-transfection reagent complexes were then added to plates containing cells. To facilitate the screen, 10 μL of DNA-transfection reagent complexes were added in duplicates to the top 4 and bottom 4 rows, resulting in two identical 48-well arrays per plate. Plates with transfected cells were incubated for 18–20 h at 37 °C/5% CO2. A screen of each tracer across the entire library using two different concentrations requires duplicate plates of transfected cells. Depending on the number of tracers being screened, transfections can be scaled up using the same ratios. The next day, for each tracer, four 20× screening solutions in tracer dilution buffer (Promega) were prepared: two duplicates at final concentration of 20 μM and two duplicates at a final concentration of 2 μM. A competing unmodified compound was added to one of each duplicate at a final concentration of 400 μM. The four resulting solutions were diluted 4-fold in Opti-MEM without serum or phenol red to generate 5× solutions (5 µM and 0.5 µM tracer +/− 100 μM competing compound). To screen the library, a BioTek MultiFlo FX liquid dispenser was used to dispense 22.5 µL of tracer solution to the top 4 rows and 22.5 µL tracer + competing compound solution to the 4 bottom rows. Plates were briefly mixed on an orbital shaker and incubated for 1.5 h at room temperature. […]

CXCR2 = molecular target: T2, CXCR2 (Homo sapiens, UniProt P25025); assay: NanoBRET screen HiBiT-CXCR2 in HEK293
T2 construct: purchased Promega (in-house HiBiT-GPCR construct library, NanoBRET)
T2 sequence (P25025 1-360): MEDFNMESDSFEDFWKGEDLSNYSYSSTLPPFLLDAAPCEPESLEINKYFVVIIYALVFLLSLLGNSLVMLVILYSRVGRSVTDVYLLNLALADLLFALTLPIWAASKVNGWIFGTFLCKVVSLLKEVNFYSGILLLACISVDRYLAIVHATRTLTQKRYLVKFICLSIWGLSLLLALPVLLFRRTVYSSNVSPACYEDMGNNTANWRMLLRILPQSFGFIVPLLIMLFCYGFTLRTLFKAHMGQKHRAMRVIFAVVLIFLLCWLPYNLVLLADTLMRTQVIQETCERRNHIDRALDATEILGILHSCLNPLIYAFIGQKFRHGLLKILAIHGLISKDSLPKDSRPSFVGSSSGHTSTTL
Procedure: as §1, §2

CXCR5 = molecular target: T3, CXCR5 (Homo sapiens, UniProt P32302); assay: NanoBRET screen HiBiT-CXCR5 in HEK293
T3 construct: purchased Promega (in-house HiBiT-GPCR construct library, NanoBRET)
T3 sequence (P32302 1-372): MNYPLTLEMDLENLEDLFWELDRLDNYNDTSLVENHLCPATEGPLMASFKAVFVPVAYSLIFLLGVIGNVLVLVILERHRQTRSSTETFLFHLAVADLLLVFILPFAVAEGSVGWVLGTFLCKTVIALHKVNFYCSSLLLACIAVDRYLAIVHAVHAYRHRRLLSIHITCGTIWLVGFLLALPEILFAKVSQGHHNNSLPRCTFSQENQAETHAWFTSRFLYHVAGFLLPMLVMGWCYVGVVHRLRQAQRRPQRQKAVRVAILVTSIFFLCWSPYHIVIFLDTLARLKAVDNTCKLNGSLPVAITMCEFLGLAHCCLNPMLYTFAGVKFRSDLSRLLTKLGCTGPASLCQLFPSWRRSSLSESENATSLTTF
Procedure: as §1, §2

GRM1 = molecular target: T4, GRM1 (Homo sapiens, UniProt Q13255); assay: NanoBRET screen HiBiT-GRM1 in HEK293
T4 construct: purchased Promega (in-house HiBiT-GPCR construct library, NanoBRET)
T4 sequence (Q13255 19-1194): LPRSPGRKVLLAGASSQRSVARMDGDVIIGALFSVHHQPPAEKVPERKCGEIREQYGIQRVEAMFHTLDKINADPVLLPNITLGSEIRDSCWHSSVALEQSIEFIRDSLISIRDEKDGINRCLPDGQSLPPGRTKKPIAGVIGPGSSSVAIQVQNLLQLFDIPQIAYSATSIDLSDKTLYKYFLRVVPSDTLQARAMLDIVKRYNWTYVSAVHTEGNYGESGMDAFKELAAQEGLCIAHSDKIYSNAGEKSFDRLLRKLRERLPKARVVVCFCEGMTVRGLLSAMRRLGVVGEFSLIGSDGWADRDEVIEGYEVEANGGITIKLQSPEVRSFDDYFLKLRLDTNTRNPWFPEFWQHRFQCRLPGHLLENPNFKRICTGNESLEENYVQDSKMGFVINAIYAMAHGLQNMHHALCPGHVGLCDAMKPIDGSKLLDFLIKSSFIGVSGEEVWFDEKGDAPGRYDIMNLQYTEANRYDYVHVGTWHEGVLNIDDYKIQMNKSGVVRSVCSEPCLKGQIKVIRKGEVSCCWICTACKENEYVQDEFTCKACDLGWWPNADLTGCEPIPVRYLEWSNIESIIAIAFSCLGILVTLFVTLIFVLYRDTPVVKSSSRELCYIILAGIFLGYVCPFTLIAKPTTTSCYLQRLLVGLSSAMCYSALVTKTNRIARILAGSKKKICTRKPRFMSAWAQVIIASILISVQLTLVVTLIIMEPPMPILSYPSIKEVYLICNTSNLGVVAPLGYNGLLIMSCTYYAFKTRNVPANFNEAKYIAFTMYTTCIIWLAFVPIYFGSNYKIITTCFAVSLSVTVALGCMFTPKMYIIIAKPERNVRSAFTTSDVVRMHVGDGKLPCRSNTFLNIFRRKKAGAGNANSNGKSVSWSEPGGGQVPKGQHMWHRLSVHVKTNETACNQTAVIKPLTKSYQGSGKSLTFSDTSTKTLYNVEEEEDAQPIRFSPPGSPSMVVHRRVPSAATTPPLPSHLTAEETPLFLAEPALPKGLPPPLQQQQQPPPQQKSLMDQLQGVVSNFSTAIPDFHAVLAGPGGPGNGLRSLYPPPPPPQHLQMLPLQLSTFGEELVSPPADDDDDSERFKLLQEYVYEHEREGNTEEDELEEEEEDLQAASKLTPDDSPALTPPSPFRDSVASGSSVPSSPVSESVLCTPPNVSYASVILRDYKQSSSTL
Procedure: as §1, §2

PTGIR = molecular target: T5, PTGIR (Homo sapiens, UniProt P43119); assay: NanoBRET screen HiBiT-PTGIR in HEK293
T5 construct: purchased Promega (in-house HiBiT-GPCR construct library, NanoBRET)
T5 sequence (P43119 whole entry): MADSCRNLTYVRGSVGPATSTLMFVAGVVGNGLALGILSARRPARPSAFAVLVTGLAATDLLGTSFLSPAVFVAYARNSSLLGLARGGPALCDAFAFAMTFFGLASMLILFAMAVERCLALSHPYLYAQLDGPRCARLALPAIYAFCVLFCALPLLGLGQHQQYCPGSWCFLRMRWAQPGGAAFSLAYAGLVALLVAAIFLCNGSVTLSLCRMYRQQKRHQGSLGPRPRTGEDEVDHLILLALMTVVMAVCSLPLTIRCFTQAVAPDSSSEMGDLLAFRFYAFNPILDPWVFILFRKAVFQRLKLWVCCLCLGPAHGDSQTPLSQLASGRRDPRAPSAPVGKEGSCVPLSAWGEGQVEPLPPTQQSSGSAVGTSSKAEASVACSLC
Procedure: as §1, §2

Compound | NanoBRET Fold Response (ADORA1; ADORA1, tracer 0.1μM) | NanoBRET Fold Response (ADORA1; ADORA1, tracer 1μM) | NanoBRET Fold Response (CXCR2; CXCR2, tracer 0.1μM) | NanoBRET Fold Response (CXCR2; CXCR2, tracer 1μM) | NanoBRET Fold Response (CXCR5; CXCR5, tracer 0.1μM) | NanoBRET Fold Response (CXCR5; CXCR5, tracer 1μM) | NanoBRET Fold Response (GRM1; GRM1, tracer 0.1μM) | NanoBRET Fold Response (GRM1; GRM1, tracer 1μM) | NanoBRET Fold Response (PTGIR; PTGIR, tracer 0.1μM) | NanoBRET Fold Response (PTGIR; PTGIR, tracer 1μM) | also measured
CCCn1c(=O)c2[nH]c(-c3ccc(OCC(=O)NCCNC(=O)CCOCCNC(=O)c4ccc(CNC(=O)CCc5ccc6n5[B-](F)(F)[N+]5=C(c7ccc[nH]7)C=CC5=C6)cc4)cc3)nc2n(CCC)c1=O [XAC-3-NB590] | 10.95 | 7.99 | 1.22 | 0.70 | 1.23 | 0.87 | 0.63 | 0.80 | 0.99 | 1.05 | 
O=C(CCc1ccc2n1[B-](F)(F)[N+]1=C(c3ccc[nH]3)C=CC1=C2)NCc1ccc(C(=O)NCCOCCOCCNCC(O)COc2cccc3ccccc23)cc1 (centres unmarked) [Propranolol-3-NB590] |  |  |  |  |  |  |  |  |  |  | NanoBRET Fold Response (ADORA1; ADORA1, 0.1μM): 0.98; NanoBRET Fold Response (ADORA1; ADORA1, 1μM): 0.98; NanoBRET Fold Response (CXCR2; CXCR2, 0.1μM): 1.07; NanoBRET Fold Response (CXCR2; CXCR2, 1μM): 1.03; NanoBRET Fold Response (CXCR5; CXCR5, 0.1μM): 1.02; NanoBRET Fold Response (CXCR5; CXCR5, 1μM): 1.06; NanoBRET Fold Response (GRM1; GRM1, 0.1μM): 0.72; NanoBRET Fold Response (GRM1; GRM1, 1μM): 0.69; NanoBRET Fold Response (PTGIR; PTGIR, 0.1μM): 1.05; NanoBRET Fold Response (PTGIR; PTGIR, 1μM): 0.97
O=C(CCc1ccc2n1[B-](F)(F)[N+]1=C(c3ccc[nH]3)C=CC1=C2)NCc1ccc(C(=O)NCCOCCC(=O)N[C@@H]2CC[C@@]3(O)[C@H]4Cc5ccc(O)c6c5[C@@]3(CCN4CC3CC3)[C@H]2O6)cc1 [Naltrexone-3-NB590] | 0.84 | 1.23 | 0.81 | 0.78 | 0.57 | 0.57 | 0.93 | 0.75 | 0.98 | 1.17 | 
N#CN=C(NCCCOc1cccc(CN2CCCCC2)c1)NCCNC(=O)CCOCCOCCOCCOCCNC(=O)CCc1ccc2n1[B-](F)(F)[N+]1=C(c3ccc[nH]3)C=CC1=C2 [Aminopotentidine-2-NB590] | 1.04 | 1.01 | 0.90 | 0.95 | 1.04 | 0.99 | 0.59 | 0.94 | 1.03 | 1.03 | 
COc1ccc2c(n1)c(CCNC(C)=O)cn2CCNC(=O)CCc1ccc2n1[B-](F)(F)[N+]1=C(c3ccc[nH]3)C=CC1=C2 [Azamelatonin-1-NB590] |  |  |  |  |  |  |  |  |  |  | NanoBRET Fold Response (ADORA1; 0.1μM tracer): 0.87; NanoBRET Fold Response (ADORA1; 1μM tracer): 0.95; NanoBRET Fold Response (CXCR2; 0.1μM tracer): 0.97; NanoBRET Fold Response (CXCR2; 1μM tracer): 0.98; NanoBRET Fold Response (CXCR5; 0.1μM tracer): 0.93; NanoBRET Fold Response (CXCR5; 1μM tracer): 1.19; NanoBRET Fold Response (GRM1; 0.1μM tracer): 1.27; NanoBRET Fold Response (GRM1; 1μM tracer): 0.47; NanoBRET Fold Response (PTGIR; 0.1μM tracer): 0.94; NanoBRET Fold Response (PTGIR; 1μM tracer): 1.06
